Experimental data published in US20120184556A1, “SUBSTITUTED ENZOIMIDAZOLESULFONAMIDES AND SUBSTITUTED INDOLESULFONAMIDES AS MGLUR4 POTENTIATORS” (priority 2009, published 2012).
Structures can show the parent of a compound that is named as a salt.

Molecular target: T1, human mGluR4 (Homo sapiens, UniProt Q14833)
T1 construct: expressed in transfected cells; host or cells: Chinese Hamster Ovary (CHO) cells
Experiment: human mGluR4 potentiation assay, CHO cells, Fluo-4 calcium fluorescence, agonist EC20
Assay type: cell-based
Conditions: for Emax: CHO, maximum extent of potentiation, human mGluR4, read-out: GluMax; for EC50: potentiation of human mGluR4 response to EC20 agonist, read-out: hEC50
Procedure: The disclosed compounds and compositions can be evaluated for their ability to act as a potentiator of metabotropic glutamate receptor activity, in particular mGluR4 activity, by any suitable known methodology known in the art. For example, Chinese Hamster Ovary (CHO) cells transfected with human mGluR4 or HEK cells co-transfected with rat mGluR4 and the G-protein regulated Inwardly Rectifying Potassium channel (GIRK) were plated in clear bottom assay plates for assay in a Hamamatsu FDSS Fluorometric Plate Reader. The cells were loaded with either the Ca2+-sensitive fluorescent dye Fluo-4 or the thallium responsive dye BTC, AM and the plates were washed and placed into a suitable kinetic plate reader. For human mGluR4 assays, a fluorescence baseline was established for 3-5 seconds, the disclosed compounds were then added to the cells, and the response in cells was measured. Approximately two and a half minutes later, a concentration of mGluR4 agonist (e.g. glutamate or L-AP4) eliciting approximately 20% (EC20) of the maximal agonist response was added to the cells, and the response was measured. Two minutes later, a concentration of mGluR4 agonist (e.g. glutamate or L-AP4) eliciting 80% (EC80) of the maximal agonist response was added to the cells, and the response was measured. For rat mGluR4/GIRK experiments, a baseline was established for approximately five seconds, disclosed compounds were added, and either an EC20 or EC80 concentration of agonist was added approximately two and one half minutes later. Potentiation of the agonist response of mGluR4 by the disclosed compounds was observed as an increase in response to the EC20 concentration of agonist in the presence of compound compared to the response to agonist in the absence of compound. Similarly, antagonism of the agonist response of mGluR4 by the disclosed compounds was observed as a decrease in response to the EC80 concentration of agonist in the presence of compound compared to the response to agonist in the absence of compound.
The above described assay operated in two modes. In the first mode, a range of concentrations of the disclosed compounds are added to cells, followed by a single fixed concentration of agonist. If the compound acts as a potentiatior, an EC50 value for potentiation and a maximum extent of potentiation by the compound at this concentration of agonist is determined by non-linear curve fitting. If the compound acts as a noncompetitive antagonist, an IC50 value is determined by non-linear curve fitting. In the second mode, several fixed concentrations of the disclosed compounds are added to various wells on a plate, followed by a range in concentrations of agonist for each concentration of disclosed compound. The EC50 values for the agonist at each concentration of compound are determined by non-linear curve fitting. A decrease in the EC50 value of the agonist with increasing concentrations of the sample compound (a leftward shift of the agonist concentration-response curve) is an indication of the degree of mGluR4 potentiation at a given concentration of the sample compound. A decrease in the maximal response of the agonist with increasing concentrations of the sample compounds, with or without a rightward shift in agonist potency, is an indication of the degree of noncompetitive antagonism at mGluR4. The second mode also indicates whether the sample compounds also affect the maximum response to mGluR4 to agonists.

T1 sequence (Q14833 33-912): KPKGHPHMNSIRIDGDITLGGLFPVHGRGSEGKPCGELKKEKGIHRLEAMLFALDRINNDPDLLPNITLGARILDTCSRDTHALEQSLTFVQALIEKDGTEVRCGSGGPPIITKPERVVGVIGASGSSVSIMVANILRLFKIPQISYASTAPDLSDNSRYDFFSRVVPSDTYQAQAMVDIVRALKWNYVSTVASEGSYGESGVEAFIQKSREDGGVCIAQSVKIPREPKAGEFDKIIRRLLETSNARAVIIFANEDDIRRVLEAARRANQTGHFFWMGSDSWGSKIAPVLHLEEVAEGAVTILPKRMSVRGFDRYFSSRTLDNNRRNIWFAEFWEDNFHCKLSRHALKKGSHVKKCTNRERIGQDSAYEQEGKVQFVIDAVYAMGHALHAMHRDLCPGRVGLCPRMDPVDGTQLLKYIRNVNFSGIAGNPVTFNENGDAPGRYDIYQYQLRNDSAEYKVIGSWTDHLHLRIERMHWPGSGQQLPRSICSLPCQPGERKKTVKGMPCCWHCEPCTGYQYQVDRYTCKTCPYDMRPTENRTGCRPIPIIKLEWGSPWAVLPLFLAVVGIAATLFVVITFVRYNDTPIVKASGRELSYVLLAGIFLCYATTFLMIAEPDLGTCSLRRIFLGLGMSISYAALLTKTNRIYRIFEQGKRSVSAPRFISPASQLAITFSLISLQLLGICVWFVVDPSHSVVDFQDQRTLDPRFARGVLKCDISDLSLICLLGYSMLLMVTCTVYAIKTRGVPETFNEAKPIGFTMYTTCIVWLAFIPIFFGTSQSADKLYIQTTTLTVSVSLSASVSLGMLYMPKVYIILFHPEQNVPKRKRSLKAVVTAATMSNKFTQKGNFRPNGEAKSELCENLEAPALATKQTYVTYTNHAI

| Emax | EC50 | Compound |
| --- | --- | --- |
| 60% | 499 nM | O=S(=O)(Nc1ccccc1Br)c1ccc2[nH]c(-c3ccccc3)nc2c1 [Example 1, N-(2-Bromophenyl)-2-phenyl-1H-benzo[d]imidazole-5-sulfonamide] |
| 77% | 353 nM | O=S(=O)(Nc1ccccc1Cl)c1ccc2[nH]c(-c3ccccc3)nc2c1 [Example 2, N-(2-Chlorophenyl)-2-phenyl-1H-benzo[d]imidazole-5-sulfonamide TFA salt] |
| 226% | 72.3 nM | O=S(=O)(Nc1ccccc1Cl)c1ccc2[nH]c(-c3ccccn3)nc2c1 [Example 3, N-(2-Chlorophenyl)-2-(pyridin-2-yl)-1H-benzo[d]imidazole-5-sulfonamide] |
| 141% | 1760 nM | O=S(=O)(Nc1ccccc1Cl)c1ccc2[nH]c(C3CCCCC3)nc2c1 [Example 4, N-(2-Chlorophenyl)-2-cyclohexyl-1H-benzo[d]imidazole-5-sulfonamide] |
| 84% | 5250 nM | O=S(=O)(Nc1ccccc1Cl)c1ccc2[nH]c(-c3cccnc3)nc2c1 [Example 5, N-(2-chlorophenyl)-2-(pyridin-3-yl)-1H-benzo[d]imidazole-5-sulfonamide] |
| 111% | 361 nM | O=S(=O)(Nc1ccccc1Cl)c1ccc2[nH]c(-c3ccsc3)nc2c1 [Example 6, N-(2-Chlorophenyl)-2-(thiophen-3-yl)-1H-benzo[d]imidazole-5-sulfonamide] |
| 149% | 1490 nM | O=S(=O)(Nc1ccccc1Cl)c1ccc2[nH]c(-c3cnccn3)nc2c1 [Example 7, N-(2-Chlorophenyl)-2-(pyrazin-2-yl)-1H-benzo[d]imidazole-5-sulfonamide] |
| 204% | 5670 nM | O=S(=O)(Nc1ccccc1Cl)c1ccc2[nH]c(-c3cccnn3)nc2c1 [Example 8, N-(2-chlorophenyl)-2-(pyridazin-3-yl)-1H-benzo[d]imidazole-5-sulfonamide TFA salt] |
| 103% | 318 nM | O=S(=O)(Nc1ccccc1Cl)c1ccc2[nH]c(-c3cccs3)nc2c1 [Example 9, N-(2-Chlorophenyl)-2-(thiophen-2-yl)-1H-benzo[d]imidazole-5-sulfonamide TFA salt] |
| 169% | 310 nM | O=S(=O)(Nc1ccccc1Cl)c1ccc2[nH]c(-c3cscn3)nc2c1 [Example 10, N-(2-Chlorophenyl)-2-(thiazol-4-yl)-1H-benzo[d]imidazole-5-sulfonamide bis TFA salt] |
| 148% | 2830 nM | O=S(=O)(Nc1ccccc1Cl)c1ccc2[nH]c(-c3ccncn3)nc2c1 [Example 11, N-(2-Chlorophenyl)-2-(pyrimidin-4-yl)-1H-benzo[d]imidazole-5-sulfonamide] |
| 98% | 116 nM | O=S(=O)(Nc1ccccc1Cl)c1ccc2[nH]c(-c3cccc(Cl)n3)nc2c1 [Example 12, N-(2-Chlorophenyl)-2-(6-chloropyridin-2-yl)-1H-benzo[d]imidazole-5-sulfonamide] |
| 145% | 111 nM | O=S(=O)(Nc1ccccc1Cl)c1ccc2[nH]c(-c3cccc(F)n3)nc2c1 [Example 13, N-(2-Chlorophenyl)-2-(6-fluoropyridin-2-yl)-1H-benzo[d]imidazole-5-sulfonamide] |
| 194% | 770 nM | O=S(=O)(Nc1ccccc1Cl)c1ccc2[nH]c(-c3nccs3)nc2c1 [Example 14, N-(2-Chlorophenyl)-2-(thiazol-2-yl)-1H-benzo[d]imidazole-5-sulfonamide] |
| 192% | 747 nM | O=S(=O)(Nc1ccccc1Cl)c1ccc2[nH]c(-c3ncccc3F)nc2c1 [Example 15, N-(2-Chlorophenyl)-2-(3-fluoropyridin-2-yl)-1H-benzo[d]imidazole-5-sulfonamide] |
| 41% | 5950 nM | O=S(=O)(Nc1cccnc1)c1ccc2[nH]c(-c3ccccc3)nc2c1 [Example 16, 2-Phenyl-N-(pyridin-3-yl)-1H-benzo[d]imidazole-5-sulfonamide bis TFA salt] |

| Emax | EC50 | Compound |
| --- | --- | --- |
| 87% | 320 nM | O=S(=O)(Nc1ccccc1F)c1ccc2[nH]c(-c3ccccc3)nc2c1 [Example 17, N-(2-Fluorophenyl)-2-phenyl-1H-benzo[d]imidazole-5-sulfonamide TFA salt] |
| 105% | 11700 nM | O=S(=O)(NC1CCCC1)c1ccc2[nH]c(-c3ccccc3)nc2c1 [Example 18, N-Cyclopentyl-2-phenyl-1H-benzo[d]imidazole-5-sulfonamide TFA salt] |
| 24% | 4900 nM | N#Cc1ccc(NS(=O)(=O)c2ccc3[nH]c(-c4ccccc4)nc3c2)cc1 [Example 19, N-(4-Cyanophenyl)-2-phenyl-1H-benzo[d]imidazole-5-sulfonamide TFA salt] |
| 49% | 172 nM | O=S(=O)(Nc1ccccc1Cl)c1ccc2[nH]c(-c3cccc4c3OCO4)nc2c1 [Example 20, 2-(benzo[d][1,3]dioxol-4-yl)-N-(2-chlorophenyl)-1H-benzo[d]imidazole-5-sulfonamide] |
| 64% | 988 nM | O=S(=O)(Nc1ccccc1Cl)c1ccc2[nH]c(-c3ccccc3F)nc2c1 [Example 21, N-(2-chlorophenyl)-2-(2-fluorophenyl)-1H-benzo[d]imidazole-5-sulfonamide] |
| 59% | 5750 nM | O=S(=O)(Nc1ccccc1Cl)c1ccc2[nH]c(-c3c(F)cccc3Cl)nc2c1 [Example 22, 2-(2-chloro-6-fluorophenyl)-N-(2-chlorophenyl)-1H-benzo[d]imidazole-5-sulfonamide] |
| 36% | 9440 nM | O=S(=O)(Nc1ccccc1Cl)c1ccc2[nH]c(-c3ccccc3C(F)(F)F)nc2c1 [Example 23, N-(2-chlorophenyl)-2-(2-(trifluoromethyl)phenyl)-1H-benzo[d]imidazole-5-sulfonamide] |
| 160% | > 10000 nM | O=S(=O)(Nc1ccccc1Cl)c1ccc2[nH]c(-c3c(F)cccc3F)nc2c1 [Example 24, N-(2-chlorophenyl)-2-(2,6-difluorophenyl)-1H-benzo[d]imidazole-5-sulfonamide] |
| 96% | 747 nM | O=S(=O)(Nc1ccccc1Cl)c1ccc2[nH]c(-c3ccco3)nc2c1 [Example 25, N-(2-chlorophenyl)-2-(furan-2-yl)-1H-benzo[d]imidazole-5-sulfonamide] |
| 68% | 328 nM | O=S(=O)(Nc1ccccc1Cl)c1ccc2[nH]c(-c3ccc(C(F)(F)F)o3)nc2c1 [Example 26, N-(2-chlorophenyl)-2-(5-(trifluoromethyl)furan-2-yl)-1H-benzo[d]imidazole-5-sulfonamide] |
| 69% | 12800 nM | O=S(=O)(Nc1ccccc1Cl)c1ccc2[nH]c(-c3ncc[nH]3)nc2c1 [Example 27, N-(2-chlorophenyl)-2-(1H-imidazol-2-yl)-1H-benzo[d]imidazole-5-sulfonamide] |
| 38% | 318 nM | O=S(=O)(Nc1c(F)cccc1F)c1ccc2[nH]c(-c3ccccc3)nc2c1 [Example 28, N-(2,6-difluorophenyl)-2-phenyl-1H-benzo[d]imidazole-5-sulfonamide] |
| 52% | 76 nM | Cc1ccc(-c2nc3cc(S(=O)(=O)Nc4ccccc4Cl)ccc3[nH]2)o1 [Example 29, N-(2-chlorophenyl)-2-(5-methylfuran-2-yl)-1H-benzo[d]imidazole-5-sulfonamide] |
| 76% | 199 nM | O=S(=O)(Nc1ccccc1Cl)c1ccc2[nH]c(-c3ccc(Cl)o3)nc2c1 [Example 30, 2-(5-chlorofuran-2-yl)-N-(2-chlorophenyl)-1H-benzo[d]imidazole-5-sulfonamide] |
| 123% | 473 nM | O=S(=O)(Nc1ccccc1Cl)c1ccc2[nH]c(-c3ncc(F)cc3F)nc2c1 [Example 31, N-(2-chlorophenyl)-2-(3,5-difluoropyridin-2-yl)-1H-benzo[d]imidazole-5-sulfonamide] |
